Measured values as given in patent US8513303B2, “Antimicrobial agent” (De Montfort University, priority 2007, dated 2013).

Columns and labels:
Format in all cases: cell-based
[1] = test system: Staphylococcus aureus ATCC 6538; assay: Antimicrobial activity of PAN catalyst during reuse; settings: room temperature, 1% w/v H2O2, no air
Procedure: (§1) PAN catalyst was assessed for antimicrobial activity at first use, 48 hours after first use, 48 hours after second use and six months after first use using the same experimental conditions as described previously (see testing antimicrobial activity section).

[2] = test system: Escherichia coli ATCC 10536; assay: as above; settings: 0.2% w/v H2O2, no air
Procedure: as §1

[3] = test system: Pseudomonas aeruginosa ATCC 15442; assay: Quantitative suspension test, log10 reduction in bacterial numbers; settings: 0.5% w/v H2O2; for log reduction: 35° C.
Excerpt: Neutralisation (nullification of activity) of antimicrobial agents is required to prevent inhibitory concentrations from being transferred to the recovery medium (as discussed, for example, in Russell A. D. (2004) Factors influencing the efficacy of antimicrobial agents in Principles and Practice of Disinfection Preservation and Sterilization, 4th edition, eds Fraise A. P., Lambert P. A. and Maillard J. Y., pages 98-127, Oxford: Blackwell Publishing Ltd. and Russell A. D., Ahonkhai I. and Rogers, D. T. (1979) A review: microbiological applications of the inactivation of antibiotics and other antimicrobial agents. Journal of Applied Bacteriology, 46, 207-245). Thus, samples were removed at desired time points and then any hydrogen peroxide present in the sample was neutralised (i.e. deactivated) using catalase.
In the examples, catalase from bovine liver was used to neutralise the activity of any remaining hydrogen peroxide (as described in Russell A. D., Ahonkhai I. and Rogers, D. T. (1979), A review: microbiological applications of the inactivation of antibiotics and other antimicrobial agents, Journal of Applied Bacteriology, 46, 207-245) after the appropriate contact time during the experiments. Control experiments were conducted to establish whether the neutraliser nullified the activity of hydrogen peroxide and whether the neutraliser was toxic to the micro-organisms tested.
The effect of acidic pH conditions (pH 3.47 to 3.54) were investigated with and without hydrogen peroxide and air.
A quantitative suspension test (as described in Reybrouck G. (1998), The testing of disinfectants, International Biodeterioration and Biodegradation, 41, 269-272) based on the general principles of European quantitative suspension tests (BS EN1040:2005: Chemical disinfectants and antiseptics, Quantitative suspension test for the evaluation of basic bactericidal activity of chemical disinfectants and antiseptics, Test method and requirements (phase 1), London: British Standards Institute; BS EN 1276:1997: Chemical disinfectants and antiseptics, Quantitative suspension test for the evaluation of bactericidal activity of chemical disinfectants and antiseptics used in food, industrial, domestic, and institutional areas, Test method and requirements (phase 2, step 1). London: British Standards Institute) was used to establish the basic level of activity of the catalyst in the absence of organic matter. All tests were performed independently at least three times unless otherwise stated. Low concentrations (0.2-1% w/v) of hydrogen peroxide were used so that increases in antimicrobial activity could be detected if present.
Bacteria were inoculated into 10 ml volumes of nutrient broth and incubated at 37° C. for 18 to 24 hours at a shaking speed of 100 revolutions/minute. After incubation, the bacteria were washed by centrifugation to remove the nutrient broth; supernatants were discarded and the bacterial pellets were resuspended in sterilised distilled water. 7.5 ml of the washed bacterial suspension was added to 67.5 ml of hydrogen peroxide and/or distilled water to give a specific final concentration (ranging from 0 to 1% w/v—see Tables below) of hydrogen peroxide and approximately 8 log10 colony forming units (CFU)/mL of bacteria. The resultant mixture was stirred magnetically throughout the experiment. Where applicable, 1 g (+/−0.1 g) of either modified PAN fibre (referred to as PAN1 (control) or PAN2 (control)) or catalyst (referred to as PAN1 catalyst or PAN2 catalyst or PAN3 catalyst) comprising PAN fibres was added to the resultant mixture. The experiments were performed with or without air. If air was used, 2.5 L/min was supplied via. a filtered air pump and a sterilised Pyrex gas distribution tube.
After a specific contact time (see Tables below), 1 ml aliquots were removed from the experimental flask and transferred into 9 ml of neutraliser (catalase) for 5 minutes to inactivate any remaining hydrogen peroxide.

OO [Example H2O2, hydrogen peroxide]
Mean log10 reduction in CFU/ml ([1]; 10 min): 0.54 log10 CFU/ml | Mean log10 reduction in CFU/ml ([1]; 20 min): 1.18 log10 CFU/ml | Mean log10 reduction in CFU/ml ([1]; 30 min): 2.68 log10 CFU/ml | Mean log10 reduction in CFU/ml ([1]; 40 min): 3.56 log10 CFU/ml | Mean log10 reduction in CFU/ml ([1]; 50 min): 4.62 log10 CFU/ml | Mean log10 reduction in CFU/ml ([1]; 60 min): 5.08 log10 CFU/ml | Mean log10 reduction in CFU/ml ([2]; 35° C., 10 min): 2.46 log10 CFU/ml | Mean log10 reduction in CFU/ml ([2]; 35° C., 20 min): 3.77 log10 CFU/ml | Mean log10 reduction in CFU/ml ([2]; 35° C., 30 min): ≧5.30 log10 CFU/ml | Mean log10 reduction in CFU/ml ([2]; 35° C., 30 min, listed as hydrogen peroxide): greater than or equal to 5.30 log10 CFU/ml | Mean log10 reduction in CFU/ml ([2]; 35° C., 40 min): >5.50 log10 CFU/ml | Mean log10 reduction in CFU/ml ([2]; 35° C., 50 min): >5.50 log10 CFU/ml | Mean log10 reduction in CFU/ml ([2]; 35° C., 60 min): >5.50 log10 CFU/ml | Mean log10 reduction in CFU/ml ([2]; room temperature, 10 min): 1.01 log10 CFU/ml | Mean log10 reduction in CFU/ml ([2]; room temperature, 20 min): 2.08 log10 CFU/ml | Mean log10 reduction in CFU/ml ([2]; room temperature, 30 min): 3.28 log10 CFU/ml | Mean log10 reduction in CFU/ml ([2]; room temperature, 40 min): 4.00 log10 CFU/ml | Mean log10 reduction in CFU/ml ([2]; room temperature, 50 min): 5.17 log10 CFU/ml | Mean log10 reduction in CFU/ml ([2]; room temperature, 60 min): >5.50 log10 CFU/ml | Mean log10 reduction in CFU/ml ([3]; air 2.5 L/min, 10 min): 0.36 (0.13) log10 CFU/ml | Mean log10 reduction in CFU/ml ([3]; air 2.5 L/min, 20 min): 0.53 (0.10) log10 CFU/ml | Mean log10 reduction in CFU/ml ([3]; air 2.5 L/min, 30 min): 0.55 (0.18) log10 CFU/ml | Mean log10 reduction in CFU/ml ([3]; air 2.5 L/min, 40 min): 0.59 (0) log10 CFU/ml | Mean log10 reduction in CFU/ml ([3]; air 2.5 L/min, 50 min): 0.72 (0.07) log10 CFU/ml | Mean log10 reduction in CFU/ml ([3]; air 2.5 L/min, 50 min, listed as hydrogen peroxide): 0.72 log10 CFU/ml | Mean log10 reduction in CFU/ml ([3]; air 2.5 L/min, 60 min): 0.50 (0.09) log10 CFU/ml | Mean log10 reduction in CFU/ml ([3]; air 2.5 L/min, 60 min, listed as hydrogen peroxide): 0.5 log10 CFU/ml | Mean log10 reduction in CFU/ml ([3]; no air, 10 min): 0.52 (0.12) log10 CFU/ml | Mean log10 reduction in CFU/ml ([3]; no air, 20 min): 0.81 (0.24) log10 CFU/ml | Mean log10 reduction in CFU/ml ([3]; no air, 30 min): 0.88 (0.25) log10 CFU/ml | Mean log10 reduction in CFU/ml ([3]; no air, 40 min): 0.86 (0.32) log10 CFU/ml | Mean log10 reduction in CFU/ml ([3]; no air, 50 min): 0.87 (0.28) log10 CFU/ml | Mean log10 reduction in CFU/ml ([3]; no air, 60 min): 0.97 (0.22) log10 CFU/ml | Mean log10 reduction in CFU/ml ([3]; no air, 60 min, listed as hydrogen peroxide): 0.97 log10 CFU/ml | log reduction ([3]; not buffered, air, 10 min): 1.80 log | log reduction ([3]; not buffered, air, 20 min): 2.42 log | log reduction ([3]; not buffered, air, 60 min): 3.61 log | log reduction ([3]; not buffered, no air, 10 min): 2.51 log | log reduction ([3]; not buffered, no air, 40 min): 4.15 log | log reduction ([3]; not buffered, no air, 60 min): 4.45 log | Mean log10 reduction in CFU/ml ([3]; acidic pH 3.47 to 3.54, air 2.5 L/min, 10 min): 2.53 log10 CFU/ml | Mean log10 reduction in CFU/ml ([3]; acidic pH 3.47 to 3.54, air 2.5 L/min, 20 min): 3.41 log10 CFU/ml | Mean log10 reduction in CFU/ml ([3]; acidic pH 3.47 to 3.54, air 2.5 L/min, 30 min): 4.25 log10 CFU/ml | Mean log10 reduction in CFU/ml ([3]; acidic pH 3.47 to 3.54, air 2.5 L/min, 40 min): ≧4.81 log10 CFU/ml | Mean log10 reduction in CFU/ml ([3]; acidic pH 3.47 to 3.54, air 2.5 L/min, 50 min): ≧5.34 log10 CFU/ml | Mean log10 reduction in CFU/ml ([3]; acidic pH 3.47 to 3.54, air 2.5 L/min, 50 min, listed as hydrogen peroxide): greater than 5 log10 CFU/ml | Mean log10 reduction in CFU/ml ([3]; acidic pH 3.47 to 3.54, air 2.5 L/min, 60 min): ≧5.34 log10 CFU/ml | Mean log10 reduction in CFU/ml ([3]; acidic pH 3.47 to 3.54, no air, 10 min): 2.30 log10 CFU/ml | Mean log10 reduction in CFU/ml ([3]; acidic pH 3.47 to 3.54, no air, 20 min): 2.76 log10 CFU/ml | Mean log10 reduction in CFU/ml ([3]; acidic pH 3.47 to 3.54, no air, 30 min): 3.71 log10 CFU/ml | Mean log10 reduction in CFU/ml ([3]; acidic pH 3.47 to 3.54, no air, 40 min): 3.88 log10 CFU/ml | Mean log10 reduction in CFU/ml ([3]; acidic pH 3.47 to 3.54, no air, 50 min): 4.52 log10 CFU/ml | Mean log10 reduction in CFU/ml ([3]; acidic pH 3.47 to 3.54, no air, 60 min): 4.83 log10 CFU/ml | Mean log10 reduction in CFU/ml ([3]; room temperature, not buffered, air 2.5 L/min, 10 min): 0.49 log10 CFU/ml | Mean log10 reduction in CFU/ml ([3]; room temperature, not buffered, air 2.5 L/min, 20 min): 0.70 log10 CFU/ml | Mean log10 reduction in CFU/ml ([3]; room temperature, not buffered, air 2.5 L/min, 30 min): 0.70 log10 CFU/ml | Mean log10 reduction in CFU/ml ([3]; room temperature, not buffered, air 2.5 L/min, 40 min): 0.80 log10 CFU/ml | Mean log10 reduction in CFU/ml ([3]; room temperature, not buffered, air 2.5 L/min, 50 min): 0.81 log10 CFU/ml | Mean log10 reduction in CFU/ml ([3]; room temperature, not buffered, air 2.5 L/min, 60 min): 0.63 log10 CFU/ml | Mean log10 reduction in CFU/ml ([3]; room temperature, not buffered, no air, 10 min): 0.58 log10 CFU/ml | Mean log10 reduction in CFU/ml ([3]; room temperature, not buffered, no air, 20 min): 1.00 log10 CFU/ml | Mean log10 reduction in CFU/ml ([3]; room temperature, not buffered, no air, 30 min): 1.00 log10 CFU/ml | Mean log10 reduction in CFU/ml ([3]; room temperature, not buffered, no air, 40 min): 1.00 log10 CFU/ml | Mean log10 reduction in CFU/ml ([3]; room temperature, not buffered, no air, 50 min): 1.02 log10 CFU/ml | Mean log10 reduction in CFU/ml ([3]; room temperature, not buffered, no air, 60 min): 1.12 log10 CFU/ml
